# Measured values taken from US7572463B2, “Oral dosage forms” (Gruenenthal GmbH, priority 1999, dated 2009).
# Where a name gives a salt, the structure may show the parent alone.
# Legend:
# [1] = In-vitro release profile, European Pharmacopoeia basket apparatus, synthetic gastric then intestinal juices, HPLC; type: physicochemical
# Experimental: The release profiles of the oral dosage forms according to the invention were determined as follows:
# The dosage forms according to the invention were tested in the European Pharmacopoeia basket apparatus at a temperature of the released medium of 37±0.5° C., and at a rate of 50 rpm for 2 hours in 600 ml synthetic gastric juices without enzymes at pH 1.2. Following this, the dosage form was tested for a further 8 hours in 900 ml synthetic intestinal juices without enzymes at pH 7.2. The quantity of active substance released at a given time was determined in each case by means of HPLC. The values shown are average values based in each case on 3 samples. The invention will be explained below with reference to examples.
# (§1) The release profile was determined according to the method indicated above using the basket apparatus and this is reproduced in the following Table 1 and in FIG. 1 (as a percentage of the total dose, calculated as tramadol hydrochloride). By way of deviation from the conditions described above, the coated pellets were tested for 18 hours in synthetic intestinal juices without enzymes at pH 7.2.
# as §1, with “2” for “1”, “10” for “18”
# [2] = Water solubility of the active-substance salts (saturated solution in deionised water, HPLC); type: physicochemical; conditions: 25° C., 20 hours stirring
# Experimental: The water solubility of the active-substance salts was determined as follows:
# The quantity of the relevant active-substance salts required for this may optionally be determined by means of preliminary experiments.
# After the un-dissolved active-substance salt had been allowed to settle, the clear supernatant was removed by pipette and centrifuged at rate of at least 3000 rpm for five minutes.
# [3] = salt in the ethyl cellulose coated pellets of Example 2
# [4] = salt in the shellac coated pellets of Example 3, tests in synthetic intestinal juices
smiles,measurement,setting,value
"COc1cccc(C2(O)CCCCC2CN(C)C)c1.O=C(O)Cc1ccccc1Nc1c(Cl)cccc1Cl (stereo not drawn) [[1e-(m-methoxyphenyl)-2e-dimethylaminomethyl-cyclohexane-1(a)-ol]-[2-(2′,6′-dichloranilino)-phenylacetate]]",period over which tramadol is released in a retarded manner from the salt,[1]; [3],10 h
same,period over which tramadol is released in a retarded manner from the salt,[1]; [4],8 h
COc1cccc(C2(O)CCCCC2CN(C)C)c1.O=C1NS(=O)(=O)c2ccccc21 (stereo not drawn) [tramadolsaccharinate],water solubility,[2],approx. 20 mg/ml
COc1cccc(C2(O)CCCCC2CN(C)C)c1 (stereo not drawn) [tramadol hydrochloride],solubility at 20 h,[2]; thermodynamic from solid,> 300 mg/mL
same,release of the active substance tramadol from the salt (in words),[1]; [3],released very rapidly
same,release of the active substance tramadol from the salt (in words),[1]; [4],released very rapidly
